Test results as given in patent publication US20080279961A1, “TELOMERE TARGETING AGENTS AS STEM CELLS DIRECTED TREATMENTS” (priority 2007, published 2008).
“Also recorded” adds a separate entry of the source.

Assays:
hTERT = hTERT immunohistochemistry of xenograft tissue; format: in vivo, human; settings: RHPS4 treated UXF1138L xenograft
Protocol: Five-micrometer paraffin sections were cut, dewaxed, and antigen retrieval done in citrate buffer (pH 6.0) in the microwave for 30 minutes. Sections were then treated with methanol/3% hydrogen peroxide to remove endogenous peroxidase and blocked with 10% normal goat serum in PBS and stained. PBS was used as washing buffer. Cells were incubated overnight at 4° C. with a monoclonal anti-hTERT antibody (class IgG2a, kappa, Novacastra, Newcastle, UK) diluted 1:40 in PBS. Mouse immunoglobulin G2a isotype control (Santa Cruz) was used as negative control. hTERT-specific immunoperoxidase staining was developed using the DAKO Envision+ system (Envision 3,3V-diaminobenzidine Plus kit mouse, DAKO Cytomation). To enhance contrast, tissues were counterstained with hematoxylin. hTERT-specific staining intensity was documented using a Leica DM4000 microscope and digital camera. Sections were viewed and evaluated by two independent pathologists. Mean numbers of atypical mitoses were counted in control and treated tissues from 3 tumors (4 fields of 250 cells per tumor) for the 3 groups (Burger et al. 2005). Box plots were generated using SigmaPlot version 10 software and statistical significance between treatments calculated in SigmaPlot using the Student T-test.

UXF1138L cells = test: metaphase spreads; format: cell-based, human; settings: 1 microM, 24 hrs
Protocol: To prepare metaphase spreads, cells were grown to 70% confluency and treated with 1 μM RHPS4 or PBS (vehicle control) for 24 hours in a T75 tissue culture flask. Supernatants were then replaced with media containing 10 μg/ml Colcemid (Sigma) and incubated for 90-120 minutes at 37° C. Next, cells were trypsinized and centrifuged at 500×g for 5 minutes; 8 ml 60 mmol/l KCl was added to the pellets and the cell suspension incubated for 20 minutes at 37° C. In a pre-fixation step, 2 ml freshly made fixative (methanol/glacial […] 3:1) was added on top of the hypotonic suspension and mixed carefully by turning the tube. After 10 minutes at RT, the mix was centrifuged at 600×g for 10 min. and the supernatant removed. For fixation, 10 ml fixative were added and the mix is kept at RT for 10 min. and centrifuged as above, the step was repeated 2 more times. Then, 0.5 ml fresh fixative was added to obtain a milky suspension of cells without clumps. Cleaned slides were placed horizontally at a 45° angle and 100 μl of cell solution dropped onto the slide from a distance of about 20 cm. Slides were dried at RT or directly dehydrated through an ethanol series of 70%, 90% and 100%. After dehydration, slides were rinsed in PBS and incubated with 0.1 μg/ml DAPI (4′, 6-diamidino-2-phenylindole)/PBS for 30 minutes at RT. […]

gamma-H2AX = gamma-H2AX immunoblotting and immunofluorescence; format: cell-based, human; settings: UXF1138L cells, 1 μM, Western blot
Protocol: During phosphorylated H2AX (gamma-H2AX) and hTERT immunofluorescence staining, approximately 75,000 UXF1138L cells/chamber were seeded onto 8 chamber glass slides (Costar) 24 hrs prior to RHPS4 treatment. After exposure to 1 μM RHPS4 for 1, 6, or 24 hours, cells were washed twice with PBS and air dried. Cells were fixed and permeabilized by immersion into ice-cold methanol/acetone (1:1; 3×1 min). Slides were blocked overnight at 4° C. with 5% BSA in PBS and washed with PBS (3×) before incubation (2 hrs) with anti-gamma-H2AX mouse monoclonal antibody (Upstate, Waltham, Mass.; 1:250 in PBS) or hTERT monoclonal antibody (NCL-L-hTERT Novacastra, Newcastle, UK; 1:40) respectively. Control cells were probed with mouse IgG (Santa Cruz Biotechnolog Inc., Santa Cruz, Calif.). Slides were washed 3× with PBS, before incubation with a goat anti-mouse FITC conjugated secondary antibody (Sigma; 1:100, 3 h). Following further PBS washes (3×), slides were incubated with 1:5000 DAPI (2 mg/ml; Sigma), washed 3× in PBS and mounted with Vectashield mounting media. Images were visualized as described above.
During immunoblotting for gamma-H2AX, cells were grown to 50 to 80% confluent in 6-well plates (Falcon) and treated with 1 μM RHPS4 for 1, 6, and 24 hours. […] Histones were dissolved in water and protein concentration was determined using the BioRad protein assay (BioRad Laboratories, Hercules Calif.). […]

Structure (SMILES): COS(=O)(=O)[O-].Cc1cc2c3c([n+](C)c4ccc(F)cc4c3c1)-c1cc(F)ccc1N2C [RHPS4, 3,11-difluoro-6,8,13-trimethyl-8H-quino[4,3,2-kl]acridinium methosulfate]
- nuclear hTERT expression in xenograft tissue (hTERT): loss of strong nuclear hTERT expression
- chromosome morphology in metaphase spreads (UXF1138L cells): marked increase in end-to-end joining; also recorded: ring and dicentric chromosomes
- time at which gamma-H2AX expression was seen (gamma-H2AX): 1 h
